# Measurements published in publication PMC12656268, “Venom Peptides Across Asian and American Tarantulas Utilize Dual Pharmacology to Target Activation and Fast Inactivation of Voltage-Gated Sodium Channels” (Toxins, 2025).
# Entries after “also recorded” stand apart in the source; their conditions may differ. Positions of bridges follow the written chain, without caps; N, C: chain ends. Residues, ends and D or L forms follow the SMILES beside them.
# Legend:
# hNaV1.3 = hNaV1.3 (Homo sapiens, UniProt Q9NY46); assay: hNaV1.3 peak current inhibition, automated whole-cell patch clamp (QPatch 16X); type: cell-based; details: for IC50: HEK293 + β1, holding −80 mV, 20 ms step to 0 mV from −120 mV 200 ms prepulse, 5 min incubation, mean ± SEM, 3 to 9 independent experiments, read-out: IC50, inhibition of peak current, NaV1.3
# Chain of hNaV1.3 (Q9NY46 whole entry, canonical isoform): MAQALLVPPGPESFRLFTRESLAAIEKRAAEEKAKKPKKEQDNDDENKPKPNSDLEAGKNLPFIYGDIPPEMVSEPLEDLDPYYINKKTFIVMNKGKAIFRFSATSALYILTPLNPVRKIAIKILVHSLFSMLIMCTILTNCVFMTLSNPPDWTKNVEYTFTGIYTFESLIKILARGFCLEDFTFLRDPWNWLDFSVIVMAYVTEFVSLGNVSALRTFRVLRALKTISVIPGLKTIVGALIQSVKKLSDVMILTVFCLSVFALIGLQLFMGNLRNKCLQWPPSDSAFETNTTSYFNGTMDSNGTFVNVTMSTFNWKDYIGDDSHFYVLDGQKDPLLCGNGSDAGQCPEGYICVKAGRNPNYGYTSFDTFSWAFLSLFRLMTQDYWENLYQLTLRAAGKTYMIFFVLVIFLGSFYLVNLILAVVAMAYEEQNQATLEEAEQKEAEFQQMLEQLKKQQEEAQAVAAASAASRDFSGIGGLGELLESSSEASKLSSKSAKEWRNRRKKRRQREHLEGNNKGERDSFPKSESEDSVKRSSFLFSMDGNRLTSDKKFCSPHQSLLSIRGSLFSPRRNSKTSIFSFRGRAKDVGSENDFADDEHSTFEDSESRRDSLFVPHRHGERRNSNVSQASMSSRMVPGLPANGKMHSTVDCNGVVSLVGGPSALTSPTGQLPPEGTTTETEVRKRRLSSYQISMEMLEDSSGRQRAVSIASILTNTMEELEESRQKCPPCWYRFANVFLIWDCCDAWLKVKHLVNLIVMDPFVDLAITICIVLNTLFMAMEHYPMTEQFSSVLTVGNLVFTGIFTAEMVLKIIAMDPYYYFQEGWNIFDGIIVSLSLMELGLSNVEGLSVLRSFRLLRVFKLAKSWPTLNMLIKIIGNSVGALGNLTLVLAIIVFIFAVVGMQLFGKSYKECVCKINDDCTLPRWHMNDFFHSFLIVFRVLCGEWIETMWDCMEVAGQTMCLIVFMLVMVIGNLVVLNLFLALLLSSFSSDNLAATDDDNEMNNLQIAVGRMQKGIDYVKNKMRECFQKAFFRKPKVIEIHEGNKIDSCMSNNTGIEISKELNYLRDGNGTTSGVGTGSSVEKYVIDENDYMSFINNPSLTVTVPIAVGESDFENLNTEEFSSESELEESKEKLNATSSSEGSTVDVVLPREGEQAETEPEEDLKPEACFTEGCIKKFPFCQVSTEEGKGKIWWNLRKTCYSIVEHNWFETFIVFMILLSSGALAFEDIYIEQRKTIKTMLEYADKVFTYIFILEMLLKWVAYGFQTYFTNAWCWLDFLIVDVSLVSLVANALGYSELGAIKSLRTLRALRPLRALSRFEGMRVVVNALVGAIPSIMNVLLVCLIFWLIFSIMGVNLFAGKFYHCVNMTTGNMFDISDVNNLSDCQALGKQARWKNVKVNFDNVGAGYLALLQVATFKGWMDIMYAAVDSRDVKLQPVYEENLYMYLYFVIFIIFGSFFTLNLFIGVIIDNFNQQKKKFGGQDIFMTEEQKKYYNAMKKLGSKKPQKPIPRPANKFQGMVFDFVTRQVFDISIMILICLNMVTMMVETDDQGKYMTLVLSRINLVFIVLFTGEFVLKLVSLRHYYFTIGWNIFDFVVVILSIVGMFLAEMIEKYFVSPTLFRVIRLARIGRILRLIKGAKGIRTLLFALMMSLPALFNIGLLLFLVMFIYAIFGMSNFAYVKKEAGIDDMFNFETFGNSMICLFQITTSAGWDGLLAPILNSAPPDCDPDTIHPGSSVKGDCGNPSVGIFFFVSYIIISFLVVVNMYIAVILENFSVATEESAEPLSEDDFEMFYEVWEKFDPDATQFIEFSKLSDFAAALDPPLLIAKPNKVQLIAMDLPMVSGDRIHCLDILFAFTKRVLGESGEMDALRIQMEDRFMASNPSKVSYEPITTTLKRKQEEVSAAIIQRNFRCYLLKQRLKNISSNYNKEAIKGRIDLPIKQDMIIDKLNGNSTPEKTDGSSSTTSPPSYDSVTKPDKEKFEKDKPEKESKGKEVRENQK
# Chain of hNaV1.3 (Q07699 19-218, further chain): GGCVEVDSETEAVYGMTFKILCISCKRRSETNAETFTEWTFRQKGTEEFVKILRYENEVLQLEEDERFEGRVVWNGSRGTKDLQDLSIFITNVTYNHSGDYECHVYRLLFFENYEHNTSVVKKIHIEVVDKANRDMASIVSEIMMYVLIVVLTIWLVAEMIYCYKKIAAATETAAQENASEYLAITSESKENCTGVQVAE
# Description: (§1) Unless otherwise specified, all cell culture reagents were obtained from Life Technologies (Carlsbad, CA, USA). The human neuroblastoma cell line SH-SY5Y (ATCC CRL-2266; Manassas, VA, USA) was maintained in RPMI medium supplemented with 15% fetal bovine serum (FBS) and 2 mM L-glutamine. HEK293 cells stably expressing human NaV channel isoforms together with the β1 auxiliary subunit (SB Drug Discovery, Glasgow, UK) were propagated in Minimal Essential Medium (MEM; Sigma-Aldrich, St. Louis, MO, USA) containing 10% FBS, 100 U/mL penicillin, 100 µg/mL streptomycin, 2 mM L-glutamine, and selective antibiotics (blasticidin, geneticin, and zeocin) at concentrations recommended by the supplier. […]
# (§2) Sodium channel currents were recorded from HEK293 cells expressing human NaV isoforms together with the β1 auxiliary subunit (SB Drug Discovery, Glasgow, UK) using the QPatch 16X automated whole-cell patch-clamp platform (Sophion Bioscience A/S, Ballerup, Denmark). […] For determining the potency of Oa1a peptides to inhibit peak current, the maximum peak current within the 20 ms at 0 mV was measured. For determining the potency of Oa1a-NH2 to slow fast inactivation, peak current values were measured at 20 ms of the 0 mV depolarization step. […]
# (§3) For calcium influx experiments, bioactivity comparisons between venom fractions and controls were based on the difference between the maximal and minimal fluorescence intensity values obtained from single-replicate assays. […] Reversibility and dissociation kinetics were analyzed by fitting data with a single-phase exponential decay model, while voltage-dependence of steady-state activation and inactivation parameters were derived from Boltzmann sigmoid fits of normalized conductance (G/Gmax) or current (I/Imax) values to determine the half-activation or half-inactivation voltages (V50). Data are expressed as mean ± SEM, where n represents the number of individual cells analyzed.
# hNaV1.6 = hNaV1.6 (Homo sapiens, UniProt Q9UQD0); assay: hNaV1.6 peak current inhibition, automated whole-cell patch clamp (QPatch 16X); type: cell-based; details: for IC50: HEK293 + β1, holding −80 mV, 20 ms step to 0 mV from −120 mV 200 ms prepulse, 5 min incubation, mean ± SEM, 3 to 9 independent experiments, read-out: IC50, inhibition of peak current, NaV1.6
# Description: as §1, §2, §3
# hNaV1.7 = hNaV1.7 (Homo sapiens, UniProt Q15858); assay: hNaV1.7 peak current inhibition, automated whole-cell patch clamp (QPatch 16X); type: cell-based; details: for IC50: HEK293 + β1, holding −80 mV, 20 ms step to 0 mV from −120 mV 200 ms prepulse, 5 min incubation, mean ± SEM, 3 to 9 independent experiments, read-out: IC50, inhibition of peak current, NaV1.7
# Chain of hNaV1.7 (Q07699 19-218): as the sequence (Q07699 19-218, further chain) above
# Chain of hNaV1.7 (Q15858 whole entry): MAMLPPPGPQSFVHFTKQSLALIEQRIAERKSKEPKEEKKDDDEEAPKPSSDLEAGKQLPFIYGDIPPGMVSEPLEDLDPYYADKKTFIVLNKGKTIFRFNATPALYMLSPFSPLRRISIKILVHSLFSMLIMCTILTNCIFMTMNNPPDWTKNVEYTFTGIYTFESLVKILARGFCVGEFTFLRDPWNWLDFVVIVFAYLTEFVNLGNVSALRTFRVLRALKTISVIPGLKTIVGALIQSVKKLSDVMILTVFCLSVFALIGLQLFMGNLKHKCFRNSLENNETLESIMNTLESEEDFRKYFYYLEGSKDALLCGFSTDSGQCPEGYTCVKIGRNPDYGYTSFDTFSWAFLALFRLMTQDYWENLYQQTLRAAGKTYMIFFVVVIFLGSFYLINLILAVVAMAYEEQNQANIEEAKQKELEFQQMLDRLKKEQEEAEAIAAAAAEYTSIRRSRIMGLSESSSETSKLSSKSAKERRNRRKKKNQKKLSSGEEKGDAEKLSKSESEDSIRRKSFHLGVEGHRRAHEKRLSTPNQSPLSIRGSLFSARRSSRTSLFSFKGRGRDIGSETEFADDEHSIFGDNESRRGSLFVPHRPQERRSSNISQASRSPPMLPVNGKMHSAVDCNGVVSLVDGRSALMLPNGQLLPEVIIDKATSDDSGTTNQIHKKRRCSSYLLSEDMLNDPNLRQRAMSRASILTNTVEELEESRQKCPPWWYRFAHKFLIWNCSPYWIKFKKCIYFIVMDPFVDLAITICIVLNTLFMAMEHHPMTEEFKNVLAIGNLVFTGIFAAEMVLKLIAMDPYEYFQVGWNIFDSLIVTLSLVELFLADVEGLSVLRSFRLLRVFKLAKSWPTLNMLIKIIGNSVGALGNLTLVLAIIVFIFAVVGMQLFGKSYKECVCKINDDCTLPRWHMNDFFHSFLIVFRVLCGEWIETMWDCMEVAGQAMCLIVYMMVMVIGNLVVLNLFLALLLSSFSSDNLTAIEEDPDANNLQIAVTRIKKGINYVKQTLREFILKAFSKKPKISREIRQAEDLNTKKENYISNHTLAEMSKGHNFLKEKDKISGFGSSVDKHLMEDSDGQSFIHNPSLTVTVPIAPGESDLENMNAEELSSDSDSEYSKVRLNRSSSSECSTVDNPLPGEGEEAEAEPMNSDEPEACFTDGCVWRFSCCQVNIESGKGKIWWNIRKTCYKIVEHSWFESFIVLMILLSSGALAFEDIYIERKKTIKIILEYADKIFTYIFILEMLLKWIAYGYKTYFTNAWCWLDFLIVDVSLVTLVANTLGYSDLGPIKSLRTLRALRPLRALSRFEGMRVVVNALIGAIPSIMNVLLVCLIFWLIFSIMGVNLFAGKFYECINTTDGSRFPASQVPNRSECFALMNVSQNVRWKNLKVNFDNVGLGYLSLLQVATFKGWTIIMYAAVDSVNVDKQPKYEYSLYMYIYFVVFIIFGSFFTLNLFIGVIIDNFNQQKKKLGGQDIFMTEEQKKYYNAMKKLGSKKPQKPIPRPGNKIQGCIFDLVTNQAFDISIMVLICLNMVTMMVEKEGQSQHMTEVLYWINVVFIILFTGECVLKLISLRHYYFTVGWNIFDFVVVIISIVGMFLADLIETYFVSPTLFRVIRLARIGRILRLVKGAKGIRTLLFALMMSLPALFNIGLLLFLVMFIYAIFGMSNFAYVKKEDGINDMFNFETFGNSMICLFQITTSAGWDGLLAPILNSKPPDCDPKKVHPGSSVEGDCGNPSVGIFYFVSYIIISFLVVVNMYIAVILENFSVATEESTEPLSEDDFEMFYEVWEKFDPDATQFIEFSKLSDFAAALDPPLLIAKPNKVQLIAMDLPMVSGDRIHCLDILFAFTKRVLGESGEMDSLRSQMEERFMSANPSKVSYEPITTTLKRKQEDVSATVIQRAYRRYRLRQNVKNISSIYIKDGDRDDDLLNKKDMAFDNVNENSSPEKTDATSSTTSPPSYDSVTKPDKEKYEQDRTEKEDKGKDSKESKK
# Description: as §1, §2, §3
# CaV3.2 = assay: hCaV3.2 (T-type) current, automated whole-cell patch clamp (QPatch 16X); type: cell-based, human; details: up to 10 μM tested; holding −90 mV, 60 ms steps to −30 mV from −120 mV 60 ms conditioning pulse; 5 min incubation; Figure S1
# Description: Unless otherwise specified, all cell culture reagents were obtained from Life Technologies (Carlsbad, CA, USA). The human neuroblastoma cell line SH-SY5Y (ATCC CRL-2266; Manassas, VA, USA) was maintained in RPMI medium supplemented with 15% fetal bovine serum (FBS) and 2 mM L-glutamine. HEK293 cells stably expressing human NaV channel isoforms together with the β1 auxiliary subunit (SB Drug Discovery, Glasgow, UK) were propagated in Minimal Essential Medium (MEM; Sigma-Aldrich, St. Louis, MO, USA) containing 10% FBS, 100 U/mL penicillin, 100 µg/mL streptomycin, 2 mM L-glutamine, and selective antibiotics (blasticidin, geneticin, and zeocin) at concentrations recommended by the supplier. HEK293T cells expressing the human CaV3.2 channel (a generous gift from Prof. Emmanuel Bourinet, Institut de Génomique Fonctionnelle, Université de Montpellier, France, and Prof. Edward Perez-Reyes, University of Virginia School of Medicine, USA) were grown in Dulbecco’s MEM supplemented with 10% FBS, 100 U/mL penicillin, 100 µg/mL streptomycin, and 750 µg/mL geneticin.
# CaV3.2 channel currents were recorded from HEK293 cells expressing hCaV3.2 using an automated QPatch 16X platform (Sophion Bioscience A/S). […]
# NaV1.7 = assay: Voltage dependence of steady-state inactivation and activation, NaV1.7; type: cell-based, human; details: for V50 of steady-state activation in presence of peptide, NaV1.7: control V50 = −28 ± 0.5 mV (sOa1a-NH2 experiment), −25 ± 0.7 mV (sOa1a-OH experiment); for V50 of steady-state activation in presence of peptide, NaV1.7 / V50 of steady-state inactivation in presence of peptide, NaV1.7: 5 min at IC50 concentration, mean ± SEM, 3 to 5 repeats; for V50 of steady-state inactivation in presence of peptide, NaV1.7: control V50 = −66 ± 0.7 mV (sOa1a-NH2 experiment), −66 ± 0.3 mV (sOa1a-OH experiment); for Effect on current–voltage relationships (activation, steady-state inactivation), NaV1.7: peptide at IC50 concentration
# Description: The voltage dependence of steady-state activation was assessed by recording sodium currents evoked by depolarizing voltage steps ranging from −110 mV to +80 mV in 5 mV increments. Peak conductance (GNa) was derived using the equation G = I/(V − Vrev), where I denotes the measured current, V the applied membrane potential, and Vrev the sodium reversal potential. To evaluate the voltage dependence of steady-state fast inactivation, a two-pulse protocol was used. Cells were conditioned with 500 ms pre-pulses at potentials between −130 mV and −10 mV (10 mV increments), followed by a 20 ms test depolarization to 0 mV to elicit sodium currents. The steady-state fast inactivation currents were plotted as I/Imax, where I = current value and Imax = highest current value within the experiment. The voltage-dependence of steady-state activation and inactivation were determined either in the absence of peptide or following 5 min exposure to peptide at the respective IC50 concentration at the NaV subtype analyzed to streamline the investigation using an effective single concentration as previously described by us.
# For calcium influx experiments, bioactivity comparisons between venom fractions and controls were based on the difference between the maximal and minimal fluorescence intensity values obtained from single-replicate assays. Electrophysiological data analysis was conducted using GraphPad Prism (version 8; GraphPad Software, San Diego, CA, USA). Nonlinear regression was applied to fit the concentration–response relationships using a variable Hill slope: log(inhibitor) versus normalized response for determining IC50 values, and log(agonist) versus normalized response for EC50 calculations. Reversibility and dissociation kinetics were analyzed by fitting data with a single-phase exponential decay model, while voltage-dependence of steady-state activation and inactivation parameters were derived from Boltzmann sigmoid fits of normalized conductance (G/Gmax) or current (I/Imax) values to determine the half-activation or half-inactivation voltages (V50). Data are expressed as mean ± SEM, where n represents the number of individual cells analyzed.
Structure (SMILES),IC50 (hNaV1.3),IC50 (hNaV1.6),IC50 (hNaV1.7),Activity on CaV3.2 (CaV3.2),"V50 of steady-state activation in presence of peptide, NaV1.7 (NaV1.7)","V50 of steady-state inactivation in presence of peptide, NaV1.7 (NaV1.7)","Effect on current–voltage relationships (activation, steady-state inactivation), NaV1.7 (NaV1.7)",Activity on NaV1.3 (in words) (hNaV1.3; tested at up to 3 μM),"Ratio OH/NH2 (IC50 sOa1a-OH / IC50 sOa1a-NH2), NaV1.6 (hNaV1.6; ratio of IC50 values)","Ratio OH/NH2 (IC50 sOa1a-OH / IC50 sOa1a-NH2), NaV1.7 (hNaV1.7; ratio of IC50 values)"
"CC(C)C[C@@H]1NC(=O)[C@H](Cc2ccccc2)NC(=O)[C@H](Cc2ccc(O)cc2)NC(=O)[C@H](CCCNC(=N)N)NC(=O)[C@@H](NC(=O)[C@@H](N)CCC(=O)O)CSSC[C@@H]2NC(=O)[C@@H]3CSSC[C@@H](C(=O)N[C@H](C(=O)N[C@@H](Cc4c[nH]c5ccccc45)C(=O)N[C@@H](CC(=O)O)C(=O)N[C@@H](Cc4c[nH]c5ccccc45)C(=O)N[C@H](C(=O)N[C@@H](Cc4ccccc4)C(N)=O)[C@@H](C)O)C(C)C)NC(=O)[C@H](Cc4c[nH]c5ccccc45)NC(=O)[C@H](CCC(N)=O)NC(=O)[C@H](Cc4c[nH]cn4)NC(=O)[C@H](CCCCN)NC(=O)[C@H](CC(N)=O)NC(=O)[C@H](Cc4c[nH]cn4)NC(=O)[C@H](CSSC[C@H](NC(=O)CNC(=O)CNC1=O)C(=O)N[C@@H](CO)C(=O)N[C@@H](CCC(N)=O)C(=O)NCC(=O)N[C@@H](CCC(=O)O)C(=O)N[C@@H](CCCCN)C(=O)N3)NC(=O)[C@H](C(C)C)NC(=O)[C@H](CC(C)C)NC(=O)[C@H](Cc1c[nH]cn1)NC(=O)[C@H](CCC(=O)O)NC2=O [sOa1a-NH2] (H-ECRYFLGGCSQGEKCCEHLVCHNKHQWCVWDWTF-NH2; disulfide 2-16, 9-21, 15-28; N-terminus assumed)",0.162 ± 0.008 µM,0.223 ± 0.018 µM,0.025 ± 0.0004 µM,did not observe activity,−30 mV,−69 mV,remained nearly unaltered; also recorded: did not alter the voltage of activation or the steady-state inactivation,,,
"CC(C)C[C@@H]1NC(=O)[C@H](Cc2ccccc2)NC(=O)[C@H](Cc2ccc(O)cc2)NC(=O)[C@H](CCCNC(=N)N)NC(=O)[C@@H](NC(=O)[C@@H](N)CCC(=O)O)CSSC[C@@H]2NC(=O)[C@@H]3CSSC[C@@H](C(=O)N[C@H](C(=O)N[C@@H](Cc4c[nH]c5ccccc45)C(=O)N[C@@H](CC(=O)O)C(=O)N[C@@H](Cc4c[nH]c5ccccc45)C(=O)N[C@H](C(=O)N[C@@H](Cc4ccccc4)C(=O)O)[C@@H](C)O)C(C)C)NC(=O)[C@H](Cc4c[nH]c5ccccc45)NC(=O)[C@H](CCC(N)=O)NC(=O)[C@H](Cc4c[nH]cn4)NC(=O)[C@H](CCCCN)NC(=O)[C@H](CC(N)=O)NC(=O)[C@H](Cc4c[nH]cn4)NC(=O)[C@H](CSSC[C@H](NC(=O)CNC(=O)CNC1=O)C(=O)N[C@@H](CO)C(=O)N[C@@H](CCC(N)=O)C(=O)NCC(=O)N[C@@H](CCC(=O)O)C(=O)N[C@@H](CCCCN)C(=O)N3)NC(=O)[C@H](C(C)C)NC(=O)[C@H](CC(C)C)NC(=O)[C@H](Cc1c[nH]cn1)NC(=O)[C@H](CCC(=O)O)NC2=O [sOa1a-OH] (H-ECRYFLGGCSQGEKCCEHLVCHNKHQWCVWDWTF-OH; disulfide 2-16, 9-21, 15-28; N-terminus assumed)",> 3 µM,0.568 ± 0.038 µM,0.41 ± 0.023 µM,did not observe activity,−22 mV,−71 mV,remained nearly unaltered,no activity,2.6,16
